One may read the GI50 as the concentration giving 50% growth inhibition.

This is an account of results in ChEMBL document CHEMBL1201862, “PubChem BioAssay data set” (2004).

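How tested: cells in 96-well plates exposed to compound for 48 hours at five concentrations. GI50: concentration for 50% inhibition of growth.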 Activity calls are given as the source filed them. No stated cut-off is given here; in the data, active = GI50 up to about 1.1 µM and inactive = higher. Square brackets hold non-standard residues; d marks the D form. Peptide text beside a SMILES is read from it. Phe(4-Cl) = N[CH](Cc1ccc(Cl)cc1)C(=O)O; 2Nal = N[CH](Cc1ccc2ccccc2c1)C(=O)O; 3Pal = N[CH](Cc1cccnc1)C(=O)O

Test systems include MCF7; A498; UACC-257; HL-60; IGROV-1; 786-0; Malme-3M; NCI-H460; Hs-578T; HOP-92; RXF 393; SK-MEL-28; SF-295; NCI/ADR-RES; HT-29; MDA-MB-231; SNB-75; M14; CCRF-CEM.
Holding throughout (assay): DTP human tumour cell line panel, 48 h

Take `[O-]c1c[n+](-c2ccccc2)no1`: the GI50 with MCF7, in the assay on A498, in the assay on UACC-257, with HL-60, in the assay with IGROV-1 and with 786-0 was > 100 µM (inactive) in each case. In addition, the GI50 in the assay with Malme-3M, in the assay with NCI-H460, with Hs-578T, with HOP-92, with RXF 393 and in the assay with SK-MEL-28 was > 100 µM (inactive) each time. Moreover, the GI50 in the assay with SF-295, with NCI/ADR-RES, in the assay with HT-29, with MDA-MB-231, in the assay on SNB-75 and in the assay with M14 was > 100 µM (inactive) in each case. Also, in the assay on CCRF-CEM, the GI50 was > 100 µM (inactive).

As for `Cc1cc(N(CCC#N)CCC#N)ccc1C(=N/NC(=O)c1cc(Cl)ccc1O)/N=N/c1cccc(Cl)c1`, the GI50 is 8.79 µM (inactive) in the assay on MCF7; 28.4 µM (inactive) with A498; 15.2 µM (inactive) in the assay with UACC-257; 4.48 µM (inactive) with HL-60; 1.4 µM (inactive) with IGROV-1; 11.5 µM (inactive) in the assay with 786-0. In addition, the GI50 is 14.2 µM (inactive) in the assay with Malme-3M; 6.27 µM (inactive) in the assay with NCI-H460; 39.1 µM (inactive) in the assay with Hs-578T; 11.8 µM (inactive) in the assay on HOP-92; 10.7 µM (inactive) in the assay with RXF 393; 16 µM (inactive) with SK-MEL-28. For the same compound, the GI50 was 22 µM (inactive) in the assay on SF-295; 16.3 µM (inactive) in the assay with NCI/ADR-RES; 16.1 µM (inactive) in the assay on HT-29; 15.7 µM (inactive) with MDA-MB-231; 13.5 µM (inactive) in the assay on SNB-75; 15.5 µM (inactive) in the assay on M14. The GI50 in the assay with CCRF-CEM was 4.41 µM (inactive).

In the case of `Cc1cc(S(N)(=O)=O)c(S/C(=N\Nc2ccc([N+](=O)[O-])cc2)c2ccc(Cl)cc2)cc1Cl`, the GI50 in the assay on MCF7 is 2.01 µM (inactive); in the assay on A498 it was 4.32 µM (inactive); in the assay on UACC-257 it was 2.72 µM (inactive); in the assay on HL-60, 44.3 µM (inactive); in the assay on IGROV-1, 3.44 µM (inactive); with 786-0, 2.64 µM (inactive). Further, the GI50 is 1.59 µM (inactive) with Malme-3M; 2.17 µM (inactive) in the assay on NCI-H460; 4.88 µM (inactive) with Hs-578T; 2.26 µM (inactive) in the assay with HOP-92; 1.75 µM (inactive) with RXF 393; 0.573 µM (active) with SK-MEL-28. The GI50 in the assay with SF-295 is 2.11 µM (inactive); with NCI/ADR-RES, 2.64 µM (inactive); with HT-29, 1.87 µM (inactive); in the assay with MDA-MB-231 it was 2.94 µM (inactive); in the assay with SNB-75, 1.83 µM (inactive); in the assay with M14, 4.09 µM (inactive). Moreover, in the assay on CCRF-CEM, the GI50 was 3.56 µM (inactive).

Take `Cc1cc(O)c(C(C)C)cc1CN1CCCCC1`: the GI50 in the assay on MCF7, in the assay on A498, in the assay on UACC-257, in the assay on HL-60, with IGROV-1 and in the assay with 786-0 was > 100 µM (inactive) each time. Moreover, the GI50 in the assay with Malme-3M, in the assay with NCI-H460, in the assay with Hs-578T, with HOP-92, in the assay on RXF 393 and in the assay on SK-MEL-28 was > 100 µM (inactive) each time. Further, the GI50 with SF-295, with NCI/ADR-RES, in the assay with HT-29, in the assay with MDA-MB-231, with SNB-75 and with M14 was > 100 µM (inactive) each time. Moreover, in the assay with CCRF-CEM, the GI50 is > 100 µM (inactive).

As for `Cc1nc2ccc(Cl)cc2c2c1CCN2c1ccccc1`, the GI50 was 15.1 µM (inactive) in the assay on MCF7; 14.8 µM (inactive) in the assay with A498; 15.2 µM (inactive) with UACC-257; 2.72 µM (inactive) in the assay on HL-60; 14.3 µM (inactive) in the assay on IGROV-1; 10.4 µM (inactive) in the assay on 786-0. Further, the GI50 was 17.4 µM (inactive) in the assay with Malme-3M; 7.74 µM (inactive) with NCI-H460; 21 µM (inactive) in the assay with Hs-578T; 8.59 µM (inactive) with HOP-92; 3.47 µM (inactive) in the assay on RXF 393; 14 µM (inactive) in the assay with SK-MEL-28. In addition, the GI50 in the assay on SF-295 is 5.47 µM (inactive); with NCI/ADR-RES it was 11.7 µM (inactive); with HT-29 it was 7.18 µM (inactive); with MDA-MB-231 it was 2.3 µM (inactive); in the assay on SNB-75 it was 23.7 µM (inactive); in the assay on CCRF-CEM, 5.62 µM (inactive).

Take `O=S1(=O)C(c2ccccc2)C(N2CCCCC2)C1C1CC2c3ccccc3C1c1ccccc12` (configuration not stated): the GI50 in the assay on MCF7 is 30.8 µM (inactive); in the assay with A498, > 100 µM (inactive); with UACC-257, > 92.7 µM (inactive); with HL-60, 2.86 µM (inactive); in the assay on IGROV-1, > 94 µM (inactive); with 786-0, > 100 µM (inactive). Also, the GI50 is > 100 µM (inactive) in the assay with Malme-3M; 17.6 µM (inactive) with NCI-H460; > 100 µM (inactive) with Hs-578T; 8.81 µM (inactive) in the assay on HOP-92; > 100 µM (inactive) in the assay with RXF 393; > 100 µM (inactive) in the assay with SF-295. The GI50 with NCI/ADR-RES is > 28 µM (inactive); in the assay with HT-29, 10.6 µM (inactive); with MDA-MB-231, > 100 µM (inactive); in the assay on SNB-75 it was > 100 µM (inactive); with M14 it was > 100 µM (inactive); in the assay with CCRF-CEM it was 2.45 µM (inactive).

Take `CC(=O)NC(Cc1ccc2ccccc2c1)C(=O)NC(Cc1ccc(Cl)cc1)C(=O)NC(Cc1cccnc1)C(=O)NC(CO)C(=O)NC(Cc1ccc(O)cc1)C(=O)NC(CCCN=C(N)N)C(=O)NC(CC(C)C)C(=O)NC(CCCN=C(N)N)C(=O)N1CCCC1C(=O)NC(C)C(N)=O` (configuration not stated) (Ac-[2Nal][Phe(4-Cl)][3Pal]SYRLRPA-NH2; configuration not given here): the GI50 with MCF7 is > 100 µM (inactive); in the assay with A498, > 100 µM (inactive); with UACC-257 it was > 100 µM (inactive); in the assay with HL-60, > 100 µM (inactive); in the assay with IGROV-1 it was > 100 µM (inactive); in the assay with 786-0, 69.7 µM (inactive). Moreover, the GI50 with Malme-3M is 28.8 µM (inactive); with NCI-H460, 95.5 µM (inactive); in the assay on Hs-578T, 50.2 µM (inactive); with HOP-92 it was > 100 µM (inactive); with RXF 393 it was > 100 µM (inactive); in the assay with NCI/ADR-RES it was > 100 µM (inactive). Also, the GI50 in the assay with HT-29 is > 100 µM (inactive); in the assay with MDA-MB-231, > 100 µM (inactive); with SNB-75 it was 88.9 µM (inactive); in the assay with M14 it was > 100 µM (inactive); in the assay on CCRF-CEM, > 100 µM (inactive).

`CN(C)CCSCCO`: the GI50 is > 100 µM (inactive) in the assay on MCF7; > 100 µM (inactive) with A498; > 100 µM (inactive) with UACC-257; 97.1 µM (inactive) in the assay on HL-60; > 100 µM (inactive) in the assay with IGROV-1; > 100 µM (inactive) with 786-0. Moreover, the GI50 in the assay with Malme-3M, in the assay on NCI-H460, in the assay with Hs-578T, in the assay on HOP-92, in the assay with RXF 393 and in the assay on SK-MEL-28 was > 100 µM (inactive) in each case. The GI50 in the assay on SF-295, with NCI/ADR-RES, in the assay with HT-29, in the assay with MDA-MB-231, in the assay on SNB-75 and in the assay with M14 was > 100 µM (inactive) throughout.
